Measurements published in patent US20080287493A1, “ARYLMETHYLEN SUBSTITUTED N-ACYL-Y-AMINOALCOHOLS” (priority 2007, published 2008).

Assays:
human FSH receptor [1] = biological target: T1, human FSH receptor (Homo sapiens, UniProt P23945); assay: HTRF assay for measuring cAMP in cells, test for antagonism (in the presence of hFSH); assay type: cell-based; conditions: hFSHR clone 16 cells (CHO cells stably transfected with the human FSH receptor); in the presence of 1e-9 mol/l hFSH; 37° C. for 2 h; read-out: IC50 (FSH antagonistic effect in the HTRF assay)
T1 construct: expressed in transfected cells; host or cells: CHO cells (hFSHR clone 16)
T1 sequence (P23945 18-695): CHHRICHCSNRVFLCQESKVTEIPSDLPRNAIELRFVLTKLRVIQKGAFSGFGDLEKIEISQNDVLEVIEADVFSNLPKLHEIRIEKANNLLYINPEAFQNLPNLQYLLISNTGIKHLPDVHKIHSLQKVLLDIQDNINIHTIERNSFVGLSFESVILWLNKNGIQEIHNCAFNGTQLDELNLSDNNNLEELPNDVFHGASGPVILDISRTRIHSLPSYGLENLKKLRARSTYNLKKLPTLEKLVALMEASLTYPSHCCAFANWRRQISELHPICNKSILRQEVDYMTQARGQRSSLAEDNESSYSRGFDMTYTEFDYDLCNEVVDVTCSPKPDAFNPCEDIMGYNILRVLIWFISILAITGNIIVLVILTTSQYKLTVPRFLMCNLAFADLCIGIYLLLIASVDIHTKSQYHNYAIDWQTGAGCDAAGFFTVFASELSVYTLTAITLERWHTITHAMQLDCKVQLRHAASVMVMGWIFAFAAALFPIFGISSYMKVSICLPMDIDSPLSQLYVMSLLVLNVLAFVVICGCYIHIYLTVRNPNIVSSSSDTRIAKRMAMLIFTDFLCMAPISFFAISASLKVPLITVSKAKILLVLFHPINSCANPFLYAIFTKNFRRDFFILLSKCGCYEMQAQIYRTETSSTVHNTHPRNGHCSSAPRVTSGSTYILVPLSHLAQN
Description: (§1) HTRF Assay for Measuring cAMP in Cells
(§2) The method is based on a competitive immunoassay between native cAMP, which has been produced by the cells, and cAMP which is labelled with XL665. The tracer binding was visualized by a monoclonal antibody, anti-cAMP labelled with cryptate [HTRF=homogeneous time-resolved fluorescence].
(§3) The specific signal is inversely proportional to the cAMP concentration of the samples employed.
(§4) The 665 nm/620 nm fluorescence ratio was evaluated.
(§5) The following material was used: 96-well plates for the tissue culture, 96-well plates with black edge and black base (e.g. Fluotrac 600 from Greiner), 96-well plates for the substance dilutions of polypropylene and cAMP Femtomolar (4000 wells Kit, CIS Bio International # 62AM1PEC).
(§6) The following reagents were used: BSA (bovine serum albumin) Fraction V protease-free, IBMX (3-isobutyl-1-methylxanthine), hFSH (human follicle stimulating hormone), Triton X-100 analytical grade, potassium fluoride analytical grade, G 418 (Geneticin) and Accutase.
(§7) Buffer 1 (washing and testing buffer) contained PBS, 1 mM CaCl2, 1 mM MgCl2, 0.2% glucose; 0.1% BSA, 1 mM IBMX. Buffer 2 (2× lysis buffer) contained 1% Triton X-100 in PBS (without CaCl2 and MgCl2). Buffer 3 (assay buffer) contained 50 mM potassium phosphate buffer (pH 7.0); 800 mM potassium fluoride; 0.2% BSA (always added fresh).
(§8) On day 1, the cells were seeded in 96-well plates (3×10^4 cells per well hFSHR clone 16 cells (CHO cells stably transfected with the human FSH receptor in 150 μl of medium). The next day, test substance dilutions were made up. For this purpose, all the substances were diluted in ice-cold buffer 1 (with or without hFSH), and the substance dilutions were placed on ice until applied to the cells.
(§9) The cell supernatant was then aspirated off, and the cells were washed 2× with 200 μl of buffer 1. The cells were treated with 60 μl of the appropriate substance concentrations at 37° C. for 2 h. The cells were then lysed with 60 μl of buffer 2 (put onto the supernatant) (on a plate shaker at RT for 30 min).
(§10) The test conjugates (XL-665 and anti-cAMP cryptate) were diluted in buffer 3 in accordance with the manufacturers' information. The actual mixture for measurement was pipetted into a black 96-well plate (in each case 15 μl of the cell lysate diluted with 35 μl of buffer 1; firstly 25 μl of XL-665 conjugate were pipetted and, after 10 min, 25 μl of the anti-cAMP cryptate were added). This is followed by incubation at RT for 90 minutes. The measurement was carried out in a PheraStar (BMG).
(§11) Dose-effect curve (hFSH) for the human receptor: 1e-8, 3e-9, 1 e-9, 3e-10, 1e-10, 3e-11, 1e-11, 3e-12 mol/l.
(§12) The test substances were employed in suitable dilutions in the absence (test for agonism) and in the presence of 1e-9 mol/l hFSH.
(§13) The values of the well ratio were averaged and then entered directly in SigmaPlot versus the concentrations. The maximum and minimum values were determined for each plate, and half the difference is to be regarded as IC50.

human FSH receptor [2] = biological target: T1, human FSH receptor; assay: HTRF assay for measuring cAMP in cells, test for agonism (in the absence of hFSH); assay type: cell-based; conditions: hFSHR clone 16 cells (CHO cells stably transfected with the human FSH receptor), 37° C. for 2 h, read-out: EC50 (FSH agonistic effect in the HTRF assay)
Description: as §1, §2, §3, §4, §5, §6, §7, §8, §9, §10, §11, §12, §13

Row | IC50 (human FSH receptor [1]) [µM] | EC50 (human FSH receptor [2]) [µM] | SMILES
1 | 0.025 | > 10 | CNC(=O)c1ccc(-c2ccc(OC(C)C)c(C(=O)N[C@@H](CCO)Cc3c[nH]c4ccccc34)c2)cc1Cl [Example 3, 3′-Chloro-4-isopropoxy-biphenyl-3,4′-dicarboxylicacid 3-{[(R)-3-hydroxy-1-(1H-indol-3-ylmethyl)-propyl]-amide} 4′-methylamide]
2 | > 10 | 7 | COc1ccc2nc(-c3cc(OC)c(OC)c(OC)c3)cc(C(=O)N[C@@H](CCO)Cc3ccc4ccccc4c3)c2c1 [Example 8, 6-Methoxy-2-(3,4,5-trimethoxy-phenyl)-quinoline-4-carboxylic acid ((R)-3-hydroxy-1-naphthalen-2-ylmethyl-propyl)-amide]
3 | > 10 | – | COc1ccc2nc(-c3cc(OC)c(OC)c(OC)c3)cc(C(=O)N[C@@H](CCO)Cc3csc4ccccc34)c2c1 [Example 9, 6-Methoxy-2-(3,4,5-trime-thoxy-phenyl)-quinoline-4-carboxylic acid ((R)-1-benzo-[b]thiophen-3-ylmethyl-3-hydroxy-propyl)-amide]
4 | > 10 | 5 | COc1ccc2nc(-c3cc(OC)c(OC)c(OC)c3)cc(C(=O)N[C@@H](CCO)Cc3ccsc3)c2c1 [Example 12, 6-Methoxy-2-(3,4,5-trime-thoxy-phenyl)-quinoline-4-carboxylic acid ((R)-3-hydroxy-1-thiophen-3-yl-methyl-propyl)-amide]
5 | > 10 | 6 | COc1ccc2nc(-c3cc(OC)c(OC)c(OC)c3)cc(C(=O)N[C@H](CCO)Cc3c[nH]c4ccccc34)c2c1 [Example 14, 6-Methoxy-2-(3,4,5-trimethoxy-phenyl)-quinoline-4-carboxylic acid [(S)-3-hydroxy-1-(1H-indol-3-yl-methyl)-propyl]-amide]

The next lines start with the compound.

Row | SMILES | IC50 (human FSH receptor [1]) [µM] | EC50 (human FSH receptor [2]) [µM]
6 | CCOc1ccc(-c2cccc(OC)c2)cc1C(=O)N[C@@H](CCO)Cc1c[nH]c2ccccc12 [Example 2, 4-Ethoxy-3′-methoxy-biphenyl-3-carboxylic acid [(R)-3-hydroxy-1-(1H-indol-3-ylmethyl)-propyl]-amide] | 0.3 | > 10
7 | COc1ccccc1C#Cc1ccc(OC(C)C)c(C(=O)N[C@@H](CCO)Cc2c[nH]c3ccccc23)c1 [Example 5, N-[(R)-3-Hydroxy-1-(1H-indol-3-ylmethyl)-propyl]-2-isopropoxy-5-(2-methoxy-phenylethynyl)-benzamide] | 0.15 | > 10
8 | COc1ccc2nc(-c3cc(OC)c(OC)c(OC)c3)cc(C(=O)N[C@H](CCO)Cc3ccccc3)c2c1 [Example 17, 6-Methoxy-2-(3,4,5-trime-thoxy-phenyl)-quinoline-4-carboxylic acid ((S)-1-benzyl-3-hydroxy-propyl)-amide] | > 10 | 8
